From patent US8268861B2, “P2X7R antagonists and their use” (Affectis Pharmaceuticals AG, priority 2009, dated 2012)
pIC50: −log10 of the molar value.

Tests used:
human P2X7R = molecular target: T1, human P2X7R (Homo sapiens, UniProt Q99572); assay: Inhibition of Bz-ATP-stimulated calcium influx in Hek293 cells stably transfected with human P2X7R (Fluo-4-AM); format: cell-based; settings: Hek293 cells expressing human P2X7R, 100 μM Bz-ATP, 15 minute incubation with test compound
T1 construct: expressed in transfected cells
T1 sequence (Q99572 1-595): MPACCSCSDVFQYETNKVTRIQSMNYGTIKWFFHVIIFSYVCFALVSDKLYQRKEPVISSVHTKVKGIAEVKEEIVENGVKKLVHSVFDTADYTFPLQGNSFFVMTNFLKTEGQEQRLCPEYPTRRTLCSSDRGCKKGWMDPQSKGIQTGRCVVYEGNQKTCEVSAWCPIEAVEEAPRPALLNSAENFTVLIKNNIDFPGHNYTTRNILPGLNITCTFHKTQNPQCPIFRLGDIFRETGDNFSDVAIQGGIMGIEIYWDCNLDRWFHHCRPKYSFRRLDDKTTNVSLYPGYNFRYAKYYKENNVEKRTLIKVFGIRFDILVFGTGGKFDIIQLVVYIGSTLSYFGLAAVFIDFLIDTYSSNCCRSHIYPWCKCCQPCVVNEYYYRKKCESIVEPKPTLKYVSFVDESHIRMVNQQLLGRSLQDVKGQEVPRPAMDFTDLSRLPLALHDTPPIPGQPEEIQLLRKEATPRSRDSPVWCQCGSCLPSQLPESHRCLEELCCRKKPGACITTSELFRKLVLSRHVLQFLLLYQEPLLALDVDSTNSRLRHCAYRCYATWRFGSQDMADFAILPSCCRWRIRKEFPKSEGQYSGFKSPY
Protocol: Inhibition of P2X7R activity by the compounds of the present invention is assessed by measuring calcium influx in Hek293 cells (ECACC No. 85120602) which have been stably transfected with a cDNA for the human P2X7R.
Hek293 cells expressing P2X7R were generated by lipofectamine transfection of the human P2X7R cDNA (Genbank accession number BC011913) under the control of the human cytomegalovirus immediate-early (CMV) promoter and inserted into the pcDNA3.1 vector (Invitrogen). […]
Inhibition of Bz-ATP-stimulated P2X7R by test compounds was monitored by measuring changes in calcium influx using the Fluo-4-AM fluorescent dye according to the manufacturer's recommendations (Molecular Devices Corporation, U.S.A.). […] After a 15 minute incubation, 100 μM Bz-ATP was added and fluorescence was measured in a FlexStation II (Molecular Devices, U.S.A.) according to the following parameters: 485 nm Excitation Wavelength; 525 nm Emission Wavelength; 515 nm Emission Cut-off; 100 μl Pipette Height; 25 μl Transfer Volume; 5 fold Compound Concentration; 3 rate Addition Speed. […] The fluorescence data were processed using a lag time of 15 seconds, recording 45 seconds, zero baseline calibrated using 2 points, and % baseline multiplier set at 3. […]

IL-1 beta secretion = IL-1 beta secretion by LPS/BzATP-stimulated isolated human monocytes (macrophages), ELISA; format: cell-based; settings: 1 μg/mL LPS 2 hours, 100 μM BzATP 30 minutes, compound added 5 minutes before BzATP, FIG. 1, p<0.01
Protocol: The effects of compounds of the present invention on IL-1 beta secretion is assessed using isolated human monocytes.
Briefly, human monocytes were purified from human blood by Ficoll-Paque from Buffy coats as follows. The Buffy coat is a greyish white layer of white blood cells and platelets that accumulates on the surface of sedimented erythrocytes when blood is allowed to stand or is centrifuged. Each Buffy coat (one per donor) was diluted with PBS and 20 ml added on top of 15 ml of Ficoll-Paque. The gradient was centrifuged at 900 g for 20 min at room temperature. […] At day 5, the cells were counted, resuspended in RPMI 1640 supplemented with 5% human serum at a concentration of 1×10^6/ml and plated onto a 24 wells plate (5×10^5 cells/well). […]
The day of experiment, the macrophages were pre-stimulated for 2 hours with 1 μg/mL LPS at 37° C. […] After incubation, the supernatants were collected by centrifugation (250 g for 5 minutes) and IL-1β secretion was measured by using the human IL-1 beta/IL-1F2 Quantikine ELISA Kit following manufacturer's instructions. […] The O.D. at 450 nm was measured for each data points and the IL-1β concentration calculated based on a standard curve. The […] concentration was further calculated to have a concentration in pg/mL/10E+6 cells, together with its standard deviation.

**Q.** How did the pIC50 (human P2X7R) turn out when `O=C(CC1CCCCCC1)Nc1cn(CCO)c2cccc(Cl)c12` [Example 2, N-(4-chloro-1-(2-hydroxyethyl)-1H-indol-3-yl)-2-cycloheptylacetamide] was run?
**A.** Its pIC50 is roughly 8.42.

**Q.** What about the IL-1beta secretion (IL-1 beta secretion) of the same molecule?
**A.** Its IL-1beta secretion is “reduced IL-1beta secretion”.
